ChEMBL document CHEMBL5649169 (ChemMedChem, 2018)

How the values were obtained:
[1] = target: Heterogeneous nuclear ribonucleoprotein H3 (Homo sapiens) (UniProt P31942); further: assay method not described here
[2] = target: Serine/threonine-protein kinase TBK1 (Homo sapiens) (UniProt Q9UHD2); further: assay method not described here
[3] = target: Ran-specific GTPase-activating protein (Homo sapiens) (UniProt P43487); further: assay method not described here
[4] = target: Prolyl 4-hydroxylase subunit alpha-1 (Homo sapiens) (UniProt P13674); further: assay method not described here
Sequence of Prolyl 4-hydroxylase subunit alpha-1 (Homo sapiens) (P13674 whole entry): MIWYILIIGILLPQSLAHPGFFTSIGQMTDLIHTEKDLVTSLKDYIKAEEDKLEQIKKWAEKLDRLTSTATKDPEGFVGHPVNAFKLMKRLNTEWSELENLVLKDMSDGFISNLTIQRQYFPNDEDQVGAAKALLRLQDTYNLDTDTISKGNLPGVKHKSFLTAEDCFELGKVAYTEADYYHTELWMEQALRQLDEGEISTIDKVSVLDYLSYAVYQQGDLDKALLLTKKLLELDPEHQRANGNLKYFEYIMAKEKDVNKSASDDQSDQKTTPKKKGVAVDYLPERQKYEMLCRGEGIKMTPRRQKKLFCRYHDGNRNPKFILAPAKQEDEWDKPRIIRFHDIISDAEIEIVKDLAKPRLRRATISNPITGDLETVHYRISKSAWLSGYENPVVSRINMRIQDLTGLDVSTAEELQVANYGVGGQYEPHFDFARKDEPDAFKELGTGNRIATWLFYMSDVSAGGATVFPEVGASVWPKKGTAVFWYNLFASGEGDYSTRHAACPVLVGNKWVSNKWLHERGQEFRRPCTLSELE

[5] = target: AP-2 complex subunit beta (Homo sapiens) (UniProt P63010); further: assay method not described here
[6] = target: Small ribosomal subunit protein uS14 (Homo sapiens) (UniProt P62273); further: assay method not described here
[7] = target: Large ribosomal subunit protein uL15 (Homo sapiens) (UniProt P46776); further: assay method not described here
[8] = target: Heterogeneous nuclear ribonucleoproteins A2/B1 (Homo sapiens) (UniProt P22626); further: assay method not described here
Sequence of Heterogeneous nuclear ribonucleoproteins A2/B1 (Homo sapiens) (P22626 whole entry): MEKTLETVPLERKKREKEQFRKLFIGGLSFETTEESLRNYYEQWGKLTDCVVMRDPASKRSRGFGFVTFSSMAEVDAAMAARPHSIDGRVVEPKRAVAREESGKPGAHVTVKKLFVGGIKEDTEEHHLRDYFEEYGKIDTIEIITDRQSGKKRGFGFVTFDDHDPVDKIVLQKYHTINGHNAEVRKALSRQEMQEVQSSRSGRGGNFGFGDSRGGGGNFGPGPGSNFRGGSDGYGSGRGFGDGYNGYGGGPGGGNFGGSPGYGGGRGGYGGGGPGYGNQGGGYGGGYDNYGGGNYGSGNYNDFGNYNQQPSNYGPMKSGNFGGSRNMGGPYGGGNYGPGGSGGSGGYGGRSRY

[9] = target: Peripherin (Homo sapiens) (UniProt P41219); further: assay method not described here
[10] = target: Dolichyl-diphosphooligosaccharide--protein glycosyltransferase subunit DAD1 (Homo sapiens) (UniProt P61803); further: assay method not described here
Sequence of Dolichyl-diphosphooligosaccharide--protein glycosyltransferase subunit DAD1 (Homo sapiens) (P61803 whole entry): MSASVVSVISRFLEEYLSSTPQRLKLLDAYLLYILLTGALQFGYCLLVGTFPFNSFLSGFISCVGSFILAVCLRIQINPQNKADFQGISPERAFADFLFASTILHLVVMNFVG

[11] = target: Squalene synthase (Homo sapiens) (UniProt P37268); further: assay method not described here
Sequence of Squalene synthase (Homo sapiens) (P37268 whole entry): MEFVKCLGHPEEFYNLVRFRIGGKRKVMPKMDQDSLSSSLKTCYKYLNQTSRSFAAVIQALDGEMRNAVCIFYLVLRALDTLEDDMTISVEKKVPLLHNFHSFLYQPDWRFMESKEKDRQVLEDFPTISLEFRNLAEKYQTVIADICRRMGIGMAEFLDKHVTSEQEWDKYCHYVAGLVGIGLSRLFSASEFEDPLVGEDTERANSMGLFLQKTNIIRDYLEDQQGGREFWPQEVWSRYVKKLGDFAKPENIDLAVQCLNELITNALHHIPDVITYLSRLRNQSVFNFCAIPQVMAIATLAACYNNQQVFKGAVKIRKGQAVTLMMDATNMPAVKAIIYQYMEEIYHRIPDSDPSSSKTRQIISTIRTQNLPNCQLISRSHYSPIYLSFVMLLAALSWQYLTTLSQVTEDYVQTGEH

[12] = target: Cofilin-1 (Homo sapiens) (UniProt P23528); further: assay method not described here
Sequence of Cofilin-1 (Homo sapiens) (P23528 whole entry): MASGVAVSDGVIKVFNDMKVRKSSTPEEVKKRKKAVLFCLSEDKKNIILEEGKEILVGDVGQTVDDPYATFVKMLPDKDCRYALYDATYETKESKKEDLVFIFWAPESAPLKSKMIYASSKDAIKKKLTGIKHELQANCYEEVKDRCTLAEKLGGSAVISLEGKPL

[13] = target: Small ribosomal subunit protein uS17 (Homo sapiens) (UniProt P62280); further: assay method not described here
[14] = target: Glutaryl-CoA dehydrogenase, mitochondrial (Homo sapiens) (UniProt Q92947); further: assay method not described here
[15] = target: Maternal embryonic leucine zipper kinase (Homo sapiens) (UniProt Q14680); further: assay method not described here
Sequence of Maternal embryonic leucine zipper kinase (Homo sapiens) (Q14680 whole entry, looked up): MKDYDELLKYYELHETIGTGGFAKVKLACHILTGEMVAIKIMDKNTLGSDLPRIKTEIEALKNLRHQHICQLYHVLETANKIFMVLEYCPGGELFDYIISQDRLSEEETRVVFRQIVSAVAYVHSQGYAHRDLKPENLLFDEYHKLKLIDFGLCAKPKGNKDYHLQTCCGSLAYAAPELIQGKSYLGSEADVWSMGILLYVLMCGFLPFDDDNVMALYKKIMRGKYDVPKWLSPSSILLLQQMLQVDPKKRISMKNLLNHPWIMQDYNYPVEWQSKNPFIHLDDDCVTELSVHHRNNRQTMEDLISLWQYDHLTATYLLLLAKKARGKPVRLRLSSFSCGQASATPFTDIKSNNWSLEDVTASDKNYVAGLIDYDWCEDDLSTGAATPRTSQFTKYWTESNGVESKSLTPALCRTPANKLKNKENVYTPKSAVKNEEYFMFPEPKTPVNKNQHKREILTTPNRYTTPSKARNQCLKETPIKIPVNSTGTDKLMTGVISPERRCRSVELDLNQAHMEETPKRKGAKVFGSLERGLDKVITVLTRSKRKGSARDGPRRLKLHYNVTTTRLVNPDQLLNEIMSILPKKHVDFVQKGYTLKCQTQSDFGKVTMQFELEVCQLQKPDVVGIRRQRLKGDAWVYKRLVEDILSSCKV

[16] = target: 26S proteasome regulatory subunit 6A (Homo sapiens) (UniProt P17980); further: assay method not described here
[17] = target: Tyrosine-protein kinase ABL1 (Homo sapiens, UniProt P00519); conditions: read-out: Kd(app)
Sequence of Tyrosine-protein kinase ABL1 (P00519 whole entry): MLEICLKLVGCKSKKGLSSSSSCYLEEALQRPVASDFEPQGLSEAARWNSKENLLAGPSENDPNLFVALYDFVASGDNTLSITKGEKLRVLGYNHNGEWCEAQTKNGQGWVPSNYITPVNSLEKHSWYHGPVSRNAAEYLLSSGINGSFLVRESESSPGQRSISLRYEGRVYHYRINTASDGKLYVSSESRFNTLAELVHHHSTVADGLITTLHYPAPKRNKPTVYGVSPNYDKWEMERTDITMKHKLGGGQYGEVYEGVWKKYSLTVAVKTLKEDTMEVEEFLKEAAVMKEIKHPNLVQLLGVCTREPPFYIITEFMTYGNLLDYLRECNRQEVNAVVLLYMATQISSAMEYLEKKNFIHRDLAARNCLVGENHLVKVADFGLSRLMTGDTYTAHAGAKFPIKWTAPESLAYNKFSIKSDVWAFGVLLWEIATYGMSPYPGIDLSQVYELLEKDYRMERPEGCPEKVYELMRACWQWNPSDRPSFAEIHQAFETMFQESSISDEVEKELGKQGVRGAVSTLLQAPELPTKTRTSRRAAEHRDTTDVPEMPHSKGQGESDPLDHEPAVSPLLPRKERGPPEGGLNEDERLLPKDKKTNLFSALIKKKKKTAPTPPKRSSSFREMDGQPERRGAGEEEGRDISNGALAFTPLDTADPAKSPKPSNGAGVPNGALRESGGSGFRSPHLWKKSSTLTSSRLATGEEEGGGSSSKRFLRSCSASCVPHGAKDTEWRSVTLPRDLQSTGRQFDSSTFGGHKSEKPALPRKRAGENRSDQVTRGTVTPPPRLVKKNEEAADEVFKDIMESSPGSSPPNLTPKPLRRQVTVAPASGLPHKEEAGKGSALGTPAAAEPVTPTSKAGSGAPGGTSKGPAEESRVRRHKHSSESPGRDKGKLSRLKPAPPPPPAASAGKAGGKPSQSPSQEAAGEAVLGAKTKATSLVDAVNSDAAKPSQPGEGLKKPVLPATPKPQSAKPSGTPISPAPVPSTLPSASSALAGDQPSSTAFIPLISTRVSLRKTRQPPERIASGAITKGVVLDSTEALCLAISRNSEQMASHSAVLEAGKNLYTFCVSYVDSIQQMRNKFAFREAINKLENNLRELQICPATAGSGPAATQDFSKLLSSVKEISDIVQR

[18] = target: Large ribosomal subunit protein eL14 (Homo sapiens) (UniProt P50914); further: assay method not described here
[19] = target: Structural maintenance of chromosomes protein 4 (Homo sapiens) (UniProt Q9NTJ3); further: assay method not described here
[20] = target: Histone acetyltransferase type B catalytic subunit (Homo sapiens) (UniProt O14929); further: assay method not described here
[21] = target: Atypical kinase COQ8A, mitochondrial (Homo sapiens) (UniProt Q8NI60); further: assay method not described here
Sequence of Atypical kinase COQ8A, mitochondrial (Homo sapiens) (Q8NI60 163-647 limits assumed): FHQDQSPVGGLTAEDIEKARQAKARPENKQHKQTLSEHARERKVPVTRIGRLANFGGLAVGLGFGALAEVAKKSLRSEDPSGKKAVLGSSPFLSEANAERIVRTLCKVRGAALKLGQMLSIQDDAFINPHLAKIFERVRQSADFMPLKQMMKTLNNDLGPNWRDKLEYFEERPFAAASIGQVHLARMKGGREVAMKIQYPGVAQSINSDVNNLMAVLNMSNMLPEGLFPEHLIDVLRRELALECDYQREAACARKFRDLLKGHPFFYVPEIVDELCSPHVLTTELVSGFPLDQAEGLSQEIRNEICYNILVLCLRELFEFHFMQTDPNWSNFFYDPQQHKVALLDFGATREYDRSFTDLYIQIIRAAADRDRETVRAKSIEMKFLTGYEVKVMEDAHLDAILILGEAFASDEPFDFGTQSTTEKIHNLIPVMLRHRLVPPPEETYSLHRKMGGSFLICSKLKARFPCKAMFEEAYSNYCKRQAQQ

[22] = target: ADP/ATP translocase 2 (Homo sapiens) (UniProt P05141); further: assay method not described here
[23] = target: Fatty acid CoA ligase Acsl3 (Homo sapiens) (UniProt O95573); further: assay method not described here
[24] = target: Myosin-9 (Homo sapiens) (UniProt P35579); further: assay method not described here
[25] = target: Serine/arginine-rich splicing factor 1 (Homo sapiens) (UniProt Q07955); further: assay method not described here
[26] = target: Casein kinase II subunit beta (Homo sapiens) (UniProt P67870); further: assay method not described here
[27] = target: Very-long-chain enoyl-CoA reductase (Homo sapiens) (UniProt Q9NZ01); further: assay method not described here
Sequence of Very-long-chain enoyl-CoA reductase (Homo sapiens) (Q9NZ01 whole entry): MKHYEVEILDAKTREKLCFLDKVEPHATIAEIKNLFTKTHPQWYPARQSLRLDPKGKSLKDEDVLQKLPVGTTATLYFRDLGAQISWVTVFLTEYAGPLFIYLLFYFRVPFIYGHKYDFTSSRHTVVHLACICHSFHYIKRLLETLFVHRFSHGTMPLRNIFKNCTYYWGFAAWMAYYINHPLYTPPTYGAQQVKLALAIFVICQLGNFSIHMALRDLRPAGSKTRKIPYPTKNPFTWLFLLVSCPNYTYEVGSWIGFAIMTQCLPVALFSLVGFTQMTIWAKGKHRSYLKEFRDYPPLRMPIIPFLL

[28] = target: Carbamoyl-phosphate synthase [ammonia], mitochondrial (Homo sapiens) (UniProt P31327); further: assay method not described here
[29] = target: T-complex protein 1 subunit zeta (Homo sapiens) (UniProt P40227); further: assay method not described here
[30] = target: Trifunctional enzyme subunit alpha, mitochondrial (Homo sapiens) (UniProt P40939); further: assay method not described here
[31] = target: Phosphatidylinositol 3,4,5-trisphosphate 5-phosphatase 2 (Homo sapiens) (UniProt O15357); further: assay method not described here
[32] = species: Homo sapiens; further: assay method not described here
[33] = target: AP-2 complex subunit alpha-1 (Homo sapiens) (UniProt O95782); further: assay method not described here
[34] = target: Reticulon-4 (Homo sapiens) (UniProt Q9NQC3); further: assay method not described here
[35] = target: Ras-related protein Rab-5B (Homo sapiens) (UniProt P61020); further: assay method not described here
[36] = target: Ephrin type-B receptor 2 (Homo sapiens) (UniProt P29323); further: assay method not described here
[37] = target: Cyclin-dependent kinase 7 (Homo sapiens) (UniProt P50613); further: assay method not described here
[38] = target: Cyclin-A2 (Homo sapiens) (UniProt P20248); further: assay method not described here
[39] = target: EKC/KEOPS complex subunit TP53RK (Homo sapiens) (UniProt Q96S44); further: assay method not described here
[40] = target: Flap endonuclease 1 (Homo sapiens) (UniProt P39748); further: assay method not described here
[41] = target: Equilibrative nucleobase transporter 1 (Homo sapiens) (UniProt Q8NBI5); further: assay method not described here
Sequence of Equilibrative nucleobase transporter 1 (Homo sapiens) (Q8NBI5 whole entry): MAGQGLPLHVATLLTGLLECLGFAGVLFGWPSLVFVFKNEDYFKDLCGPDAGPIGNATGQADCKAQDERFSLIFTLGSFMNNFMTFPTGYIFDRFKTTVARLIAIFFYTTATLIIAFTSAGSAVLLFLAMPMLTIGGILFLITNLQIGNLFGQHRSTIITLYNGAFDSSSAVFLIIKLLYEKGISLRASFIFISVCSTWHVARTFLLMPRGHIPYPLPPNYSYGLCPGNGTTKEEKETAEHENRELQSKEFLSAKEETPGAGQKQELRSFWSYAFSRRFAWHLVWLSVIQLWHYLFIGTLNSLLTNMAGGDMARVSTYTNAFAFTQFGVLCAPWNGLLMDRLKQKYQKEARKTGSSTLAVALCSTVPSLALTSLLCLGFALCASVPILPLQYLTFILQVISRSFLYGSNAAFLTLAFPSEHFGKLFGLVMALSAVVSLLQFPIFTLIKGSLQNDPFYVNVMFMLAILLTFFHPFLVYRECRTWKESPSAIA

[42] = target: Protein mono-ADP-ribosyltransferase PARP16 (Homo sapiens) (UniProt Q8N5Y8); further: assay method not described here
[43] = target: Interleukin-1 receptor-associated kinase 1 (Homo sapiens) (UniProt P51617); further: assay method not described here
[44] = target: Serine/threonine-protein kinase B-raf (Homo sapiens) (UniProt P15056); further: assay method not described here
[45] = target: Single-stranded DNA-binding protein, mitochondrial (Homo sapiens) (UniProt Q04837); further: assay method not described here
[46] = target: Myosin light chain kinase, smooth muscle (Homo sapiens) (UniProt Q15746); further: assay method not described here

Sequence of Ran-specific GTPase-activating protein (Homo sapiens) (P43487 whole entry): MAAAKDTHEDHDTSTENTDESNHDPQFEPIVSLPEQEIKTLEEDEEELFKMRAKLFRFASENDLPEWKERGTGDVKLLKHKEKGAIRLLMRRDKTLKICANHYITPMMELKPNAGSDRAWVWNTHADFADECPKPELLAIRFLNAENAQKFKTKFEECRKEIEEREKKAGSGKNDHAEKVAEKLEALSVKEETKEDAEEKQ

## Cc1ccc(C(=O)Nc2cccc(C(F)(F)F)c2)cc1Nc1nc(-c2cccnc2)nc2c1cnn2C
[1]
  ED50: 0.00513 µM
[2]
  ED50: 0.0187 µM
[3]
  ED50: 3.63 µM
[4]
  ED50: 0.511 µM
[5]
  ED50: 11.9 µM
[6]
  ED50: 0.108 µM
[7]
  ED50: 5.95 µM
[8]
  ED50: 0.0823 µM
[9]
  ED50: 0.178 µM
[10]
  ED50: 14 µM
[11]
  ED50: 3.81 µM
[12]
  ED50: 7.3 µM
[13]
  ED50: 0.0251 µM
[14]
  ED50: 7.4 µM
[15]
  ED50: 0.0176 µM
[16]
  ED50: 7.62 µM
[17]
  Kd: 0.91 µM
[18]
  ED50: 0.187 µM
[19]
  ED50: 7.32 µM
[20]
  ED50: 0.183 µM
[21]
  ED50: 0.39 µM
[22]
  ED50: 2.54 µM
[23]
  ED50: 5.73 µM
[24]
  ED50: 0.756 µM
[25]
  ED50: 9.12 µM
[26]
  ED50: 0.109 µM
[27]
  ED50: 3.86 µM
[28]
  ED50: 11.8 µM
[29]
  ED50: 5.44 µM
[30]
  ED50: 0.877 µM
[31]
  ED50: 0.364 µM
[32]
  ED50: 106 µM
[33]
  ED50: 0.217 µM
[34]
  ED50: 0.00531 µM
[35]
  ED50: 18.1 µM
[36]
  ED50: 2.94 µM
[37]
  ED50: 0.0338 µM
[38]
  ED50: 4.89 µM
[39]
  ED50: 3.47 µM
[40]
  ED50: 8.96 µM
[41]
  ED50: 12.9 µM
[42]
  ED50: 0.0016 µM
[43]
  ED50: 14.6 µM
[44]
  ED50: 3.64 µM
[45]
  ED50: 0.00621 µM
[46]
  ED50: 0.247 µM

## Cc1ccc(C(=O)Nc2cccc(C(F)(F)F)c2)cc1Nc1nc(-c2cccnc2)nc2nn(C)cc12
[1]
  ED50: 17.1 µM
[2]
  ED50: 3.85 µM
[3]
  ED50: 8.14 µM
[4]
  ED50: 0.000132 µM
[5]
  ED50: 0.331 µM
[6]
  ED50: 0.00933 µM
[7]
  ED50: 16.7 µM
[8]
  ED50: 0.0115 µM
[9]
  ED50: 1.74 µM
[10]
  ED50: 32.9 µM
[11]
  ED50: 2.93 µM
[12]
  ED50: 0.0624 µM
[13]
  ED50: 0.0189 µM
[14]
  ED50: 0.169 µM
[15]
  ED50: 6.57 µM
[16]
  ED50: 0.00497 µM
[17]
  Kd: 0.732 µM
[18]
  ED50: 7.31 µM
[19]
  ED50: 7.29 µM
[20]
  ED50: 0.0527 µM
[21]
  ED50: 8.58 µM
[22]
  ED50: 0.186 µM
[23]
  ED50: 37.2 µM
[24]
  ED50: 0.0973 µM
[25]
  ED50: 0.0562 µM
[26]
  ED50: 0.0889 µM
[27]
  ED50: 1.31 µM
[28]
  ED50: 0.188 µM
[29]
  ED50: 0.677 µM
[30]
  ED50: 0.0595 µM
[31]
  ED50: 1.01 µM
[32]
  ED50: 14.7 µM
[33]
  ED50: 4.78 µM
[34]
  ED50: 3.55 µM
[35]
  ED50: 0.0327 µM
[36]
  ED50: 6.16 µM
[37]
  ED50: 0.0647 µM
[38]
  ED50: 0.586 µM
[39]
  ED50: 0.485 µM
[40]
  ED50: 1.02 µM
[41]
  ED50: 33.9 µM
[42]
  ED50: 22200 µM
[43]
  ED50: 0.0479 µM
[44]
  ED50: 9.35 µM
[45]
  ED50: 0.0346 µM
[46]
  ED50: 0.00038 µM
